Laboratory results reported in patent publication US8735584B2 (Merck Patent GmbH, priority 2008, dated 2014).

Target: T1, GST-Aurora A (Homo sapiens, UniProt O14965)
T1 construct: N-terminal GST fusion with full length Aurora A (1-403 amino acids); purchased Carna Biosciences 05-101
T1 sequence (O14965 1-403): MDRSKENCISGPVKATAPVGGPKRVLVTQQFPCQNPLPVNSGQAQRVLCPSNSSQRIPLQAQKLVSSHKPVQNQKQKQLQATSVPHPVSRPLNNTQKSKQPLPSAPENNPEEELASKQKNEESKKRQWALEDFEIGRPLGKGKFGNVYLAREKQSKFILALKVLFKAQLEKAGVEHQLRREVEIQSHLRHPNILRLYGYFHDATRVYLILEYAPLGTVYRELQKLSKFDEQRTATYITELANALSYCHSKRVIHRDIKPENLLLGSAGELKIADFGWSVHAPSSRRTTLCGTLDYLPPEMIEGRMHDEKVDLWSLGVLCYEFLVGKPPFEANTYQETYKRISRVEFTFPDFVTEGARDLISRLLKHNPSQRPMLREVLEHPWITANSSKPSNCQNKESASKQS
Experiment: Aurora A IC50, Caliper LC3000 mobility shift assay
Type: biochemical
Settings: LC3000 method; 15 uM ATP (the KM value); read-out: Aurora Kinase A Activity (IC50)
Summary of the method: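 GST-tagged full-length Aurora A (0.067 ng/ul) with 15 uM ATP (KM) and 1 uM FITC-LRRASLG peptide in 100 mM HEPES pH 7.5, 1 mM MgCl2, 1 mM DTT, Brij-35; 90 min at 25 C, EDTA stop. Off-chip mobility shift read of substrate-to-product conversion; IC50 from sigmoidal dose-response.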

IC50: > 100 nM
SMILES: O=c1[nH]c2ncccc2c2cc(Nc3cccc(F)c3)ccc12 [Example 31, 9-(3-Fluoro-phenylamino)-5H-benzo[c][1,8]naphthyridin-6-one]
